Source: ChEMBL document CHEMBL4376815, “The Development Process for Discovery and Clinical Advancement of Modern Antimalarials” (J Med Chem, 2019)

Legend:
Plasmodium berghei [1] = experiment: Antimalarial activity against Plasmodium berghei infected in po dosed NMRI mouse assessed as reduction in parasite growth administered daily for 3 consecutive days by flow cytometric analysis; format: functional
Plasmodium berghei [2] = experiment: Antimalarial activity against Plasmodium berghei infected in NMRI mouse assessed as reduction in parasite growth at 10 mg/kg, po administered once and measured after 96 hrs by flow cytometric analysis relative to control; format: functional; design: scale not given: the % may be the effect or the level left
[3] = Tmax in Beagle dog at 3 mg/kg, po by LC-MS/MS analysis; format: ADME, organism-based, Canis lupus familiaris; settings: in vivo
[4] = Cytotoxicity against human HepG2 cells assessed as reduction in cell viability after 4 days by XTT assay; format: cell-based
[5] = Drug recovery in feces of po dosed human by LC-MS/MS analysis; format: ADME, organism-based; settings: faeces, read-out: Drug recovery
[6] = Half life in Wistar Hannover rat at 5 mg/kg, iv by LC-MS/MS analysis; settings: in vivo
[7] = Cmax in Beagle dog at 3 mg/kg, po by LC-MS/MS analysis; format: ADME, organism-based, Canis lupus familiaris; design: dose 3 mg/kg, route oral; settings: in vivo
[8] = Clearance in Beagle dog at 1 mg/kg, iv by LC-MS/MS analysis; format: ADME, organism-based, Canis lupus familiaris; settings: in vivo
Plasmodium falciparum [9] = experiment: Antimalarial activity against Plasmodium falciparum D6 infected in human erythrocytes assessed as reduction in [3H]-hypoxanthine incorporation incubated for 48 hrs followed by addition of [3H]-hypoxanthine and measured after 24 hrs by liquid scintillation counting method; format: functional, organism-based
Plasmodium berghei [10] = experiment: Antimalarial activity against Plasmodium berghei infected in NMRI mouse assessed as mean survival days at 30 mg/kg, po administered once and measured up to 30 days; format: functional
[11] = Half life in human; format: ADME
Plasmodium berghei [12] = experiment: Antimalarial activity against Plasmodium berghei infected in NMRI mouse assessed as reduction in parasite growth at 10 mg/kg, po administered daily for 3 consecutive days by flow cytometric analysis relative to control; format: functional; design: scale not given: the % may be the effect or the level left
Plasmodium falciparum [13] = experiment: Antimalarial activity against Plasmodium falciparum 7G8 infected in human erythrocytes assessed as reduction in [3H]-hypoxanthine incorporation incubated for 48 hrs followed by addition of [3H]-hypoxanthine and measured after 24 hrs by liquid scintillation counting method; format: functional, organism-based
[14] = Oral bioavailability in rat at 23.7 mg/kg and measured up to 24 hrs by LC/MS analysis; format: ADME, organism-based; settings: in vivo
Plasmodium vivax [15] = experiment: Antimalarial activity against Plasmodium vivax infected in human assessed as parasite clearance time at 30 mg/kg, po administered daily for 3 consecutive day and measured on day 5; format: functional
in vivo = settings: rat, po, 23.7 mg/kg
Description: Half life in rat at 23.7 mg/kg, po and measured up to 24 hrs by LC/MS analysis

[16] = Metabolic stability in human assessed as paren compound remaining at […], po by LC-MS/MS analysis; format: ADME, organism-based; settings: in vivo
Plasmodium falciparum [17] = experiment: Antimalarial activity against Plasmodium falciparum infected in human assessed as reduction in parasite growth at 30 mg/kg, po administered daily for 3 consecutive day and measured on day 5 relative to control; format: functional; design: scale not given: the % may be the effect or the level left
Plasmodium vivax [18] = experiment: Antimalarial activity against Plasmodium vivax infected in human assessed as median parasite clearance time at 30 mg/kg, po administered daily for 3 consecutive day and measured on day 5; format: functional
[19] = AUC (0 to 24 hrs) in human at 150 mg, po for 3 days and measured on day 1 by LC-MS/MS analysis; settings: in vivo

Q: Which ED50 (Plasmodium berghei [1]) does the source give for `C[C@H]1Cc2c([nH]c3cc(Cl)c(F)cc23)[C@@]2(N1)C(=O)Nc1ccc(Cl)cc12` [CIPARGAMIN] here?
A: The ED50 was 1.2 mg/kg.

Q: And the ED90 (Plasmodium berghei [1])?
A: Its ED90 is 2.7 mg/kg.

Q: What about the ED99 (Plasmodium berghei [1]) of the same molecule?
A: The ED99 was 5.3 mg/kg.

Q: What about the Activity (Plasmodium berghei [2]) of the same molecule?
A: Its Activity is 9.96%.

Q: What about the Tmax [3] of the same molecule?
A: Its Tmax is 1.7 h.

Q: And the CC50 at 96 h [4]?
A: Its CC50 at 96 h is > 10000 nM.

Q: What about the dose excreted [5] of the same molecule?
A: Its dose excreted is 32%.

Q: And the half-life [6]?
A: The half-life was 8.2 h.

Q: And the Cmax [7]?
A: Its Cmax is 868 ng/mL.

Q: And the clearance [8]?
A: Its clearance is 3.35 mL/min/kg.

Q: What about the EC50 (Plasmodium falciparum [9]) of the same molecule?
A: The EC50 was 0.5 to 1.4 nM.

Q: What about the MSD (Plasmodium berghei [10]) of the same molecule?
A: Its MSD is 24.1 days.

Q: And the half-life [11]?
A: The half-life was 33 h.

Q: What about the Activity (Plasmodium berghei [12]) of the same molecule?
A: Its Activity is 50%.

Q: And the EC50 (Plasmodium falciparum [13])?
A: The EC50 was 0.5 to 1.4 nM.

Q: And the bioavailability [14]?
A: Its bioavailability is 100%.

Q: What about the Time (Plasmodium vivax [15]) of the same molecule?
A: The Time was 30 h.

Q: What about the half-life at 24 h (in vivo) of the same molecule?
A: Its half-life at 24 h is 27.7 h.

Q: What about the Stability [16] of the same molecule?
A: The Stability was 75%.

Q: And the Activity (Plasmodium falciparum [17])?
A: Its Activity is 100%.

Q: What about the Time (Plasmodium vivax [18]) of the same molecule?
A: The Time was 12 h.

Q: What about the AUC(0-t) at 24 h [19] of the same molecule?
A: Its AUC(0-t) at 24 h is 15000 ng·h/mL.
